This assay has as its target T1, longipain (Haemaphysalis longicornis, UniProt A1IHG0).
T1 construct: gene HlCath; partial coding region (pPICZC) expressed in Pichia pastoris GS115, HiTrap chelating column purified; precursor 341 residues with 17-residue signal peptide
Put plainly: inhibition of fluorogenic substrate hydrolysis. Type of assay: biochemical. The following applies: read-out: Inhibition (%) relative to control / Z-F-R-MCA. The text has this: inhibition of fluorogenic substrate hydrolysis on longipain

T1 sequence (A1IHG0 22-341 limits assumed): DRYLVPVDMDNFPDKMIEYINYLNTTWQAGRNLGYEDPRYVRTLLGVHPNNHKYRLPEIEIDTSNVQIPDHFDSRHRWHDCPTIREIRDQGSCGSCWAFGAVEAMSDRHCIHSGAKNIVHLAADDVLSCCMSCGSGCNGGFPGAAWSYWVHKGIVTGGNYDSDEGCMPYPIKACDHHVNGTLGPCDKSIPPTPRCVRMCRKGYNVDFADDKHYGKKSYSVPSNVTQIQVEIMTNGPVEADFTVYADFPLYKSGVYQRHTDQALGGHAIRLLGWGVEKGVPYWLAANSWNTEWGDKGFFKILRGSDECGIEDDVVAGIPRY

For the molecule `CC(C)C[C@H](NC(=O)[C@@H]1O[C@H]1C(=O)O)C(=O)NCCCCNC(=N)N` [E-64], the inhibition at 10 µM came to 84 ± 0.2%.

The values above are taken from article PMC2358973, “A Cysteine Protease Is Critical for Babesia spp. Transmission in Haemaphysalis Ticks” (PLoS Pathogens, 2008).
